In US20030212088A1, “Methods and compositions for treating, preventing or delaying onset of a neoplasm” (priority 2002, published 2003):
Structures can show the parent of a compound that is named as a salt.

Tested on: Mouse serum IGF-1
Assay: Serum IGF-I radioimmunoassay in CT-26 tumor-bearing mice
Format: in vivo, BALB/c mice
Settings: serum collected at sacrifice (day 24); Pegvisomant 5.0 mg/day s.c.; Irinotecan 100 mg/kg on post-inoculation days 7, 14, 21
Experimental: CT-26 cells (mouse colon carcinoma) are grown in DMEM with 10% fetal bovine serum until the cells are approximately 50% confluent. Trypsin is used to lift adherent cells from the surface of tissue culture flask. The cells are then washed and suspended in Hank's buffered saline solution. BALB/c mice (Jackson Laboratories, Bar Harbor, Me.), 5-8 weeks of age, are used in this example. Initially, the spleen is mobilized using a left flank incision. Direct splenic injections of CT-26 cells is performed (1×10^4 viable cells, 0.05 ml total volume). Wound clips are used to close the incision. This is a syngenic colon cancer model so the host animals are not immunocompromised.
Injections are administered on the flank opposite the side of the wound clips from the splenic injection using a 25-gauge needle on a tuberculin syringe.
Mice are sacrificed on day 24. […] Treatment groups are compared using a standard t-test.
Mouse serum IGF-1 is measured by radioimmunoassay (RIA) after acid-ethanol extraction. Briefly, the serum/extraction mixture is incubated at room temperature for 2 hours, centrifuged, and the supernatant is diluted 1:200 for analysis. IGF-I concentrations are the measured by RIA using a polyclonal rabbit antibody (Nicohls Institute, San Juan Capistrano, Calif.). The assay standards are created with recombinant human IGF-I (Amersham International, Bucks, UK).

`CCc1c2c(nc3ccc(OC(=O)N4CCC(N5CCCCC5)CC4)cc13)-c1cc3c(c(=O)n1C2)COC(=O)[C@]3(O)CC` [Irinotecan, (4S)-4,11-diethyl-4-hydroxy-9-((4-piperidinopiperidino)carbonyloxy)-1H-pyrano (3′,4′:6,7)indolizino(1,2-b)quinoline-3,14(4H,12H) dione hydrochloride] gave a serum IGF-I concentration (mean ± standard error) of 129 ± 5.9 µg/L.
For Pegvisomant, the serum IGF-I concentration (mean ± standard error) was 50 ± 5.3 µg/L.
